Laboratory results as given in patent US9079870B2, “Thiol mediated/activated prodrugs of sulfur dioxide (SO2) having anti-bacterial activity” (priority 2012, dated 2015).
In brackets after ≈: the same amount, converted by molar mass. Read-outs that look alike come from different tables or passages of the source.

How the values were obtained:
[1] = system: Mycobacterium tuberculosis H37Rv strain; assay: Antimycobacterial activity assay (MIC, 7H11 agar); assay type: cell-based; details: for inhibition of growth of Mtb at 100 μg mL-1: tested at 100 μg mL-1
[2] = Pararosaniline-based colorimetric assay for sulfur dioxide; assay type: physicochemical; details: detected with pararosaniline-based colorimetric assay; 10 equiv cysteine, pH 7.4
[3] = Cysteine-activated sulfur dioxide release, ion chromatography analysis of sulfite; details: for SO2 yield, 5 min: 5 min after treatment of compound (100 1M) with 10 equiv of cysteine in pH 7.4 phosphate buffer; for % SO2 (30 min): 30 min after commencement of the reaction with thiol, per mole of compound
S. aureus ATCC 29213 = assay: Antibacterial activity (MIC) against S. aureus; assay type: cell-based; details: Staphylococcus aureus, ATCC29213, read-out: MIC (μg/mL) S. aureus ATCC 29213
Text: (§1) The antibacterial activity of thiol mediated/activated prodrugs of SO2 i.e. 2,4-dinitrophenylsulfonamide related compounds against the gram positive pathogenic bacteria selected from the group S. aureus, E. feacalis is given herein below Table 2a.

E. feacalis ATCC 29212 = assay: Antibacterial activity (MIC) against E. feacalis; assay type: cell-based; details: Enterococcus faecalis, ATCC29212, read-out: MIC (μg/mL) E. feacalis ATCC 29212
Text: as §1

[4] = Mycobacterium tuberculosis, Table 3, Mtb H37Rv, read-out: MIC
[5] = Mycobacterium tuberculosis, H37RV, Table 3, Mtb H37Rv
[6] = Mycobacterium tuberculosis, H37RV, Table 3, inhibit 99% of bacterial growth, Mtb H37Rv
[7] = Mycobacterium tuberculosis, H37RV, Table 2b, Mtb H37Rv
[8] = Mycobacterium tuberculosis, H37RV, Table 2b, inhibit 99% of bacterial growth, Mtb H37Rv
[9] = 30 min after treatment of compound (100 1M) with 10 equiv of cysteine in pH 7.4 phosphate buffer
[10] = Table 2b, Mtb H37Rv, read-out: MIC
[11] = Mycobacterium tuberculosis, H37RV, 672 h, Table 3, inhibit 99% of bacterial growth, Mtb H37Rv, read-out: MIC
[12] = Table 3, 30 min after treatment of compound (100 μM) with 10 equiv of cysteine in pH 7.4 phosphate buffer
[13] = Mycobacterium tuberculosis, Table 2b, Mtb H37Rv, read-out: MIC
[14] = Mycobacterium tuberculosis, Table 2b, inhibit 99% of bacterial growth, Mtb H37Rv, read-out: MIC

NCc1ccccc1 [BnNH2, Benzylamine, reference compound]
MIC [1, 4]: > 250 µM | MIC ([1]; Mycobacterium tuberculosis, Table 3, inhibit 99% of bacterial growth, Mtb H37Rv, read-out: MIC): > 100 µg/mL | inhibition of growth of Mtb at 100 μg mL-1 [1]: did not show a significant inhibition of growth of Mtb | SO2 source [2]: no

CNCc1ccccc1 [BnNHMe, N-methylbenzylamine, reference compound]
MIC [1, 5]: > 250 µM | MIC [1, 6]: > 100 µg/mL | inhibition of growth of Mtb at 100 μg mL-1 [1]: a similar observation | SO2 source [2]: no

O=[N+]([O-])c1ccc(S(=O)(=O)NCc2ccc(Cl)cc2)c([N+](=O)[O-])c1 [Compound 3, N-(4-chlorobenzyl)2,4-dinitrophenylsulfonamide]
MIC [1, 7]: 1.07 µM | MIC [1, 8]: 0.4 µg/mL | SO2 yield, 5 min [3]: 77 µM | SO2 yield, 30 min [3, 9]: 96 µM

O=[N+]([O-])c1ccc(S(=O)(=O)NCc2ccc(C(F)(F)F)cc2)c([N+](=O)[O-])c1 [Compound 4, N-(4-trifluoromethylbenzyl) 2,4-dinitrophenylsulfonamide]
MIC [1]: 0.4 µg/mL | MIC [1, 10]: 0.98 µM | SO2 yield, 5 min [3]: 79 µM | SO2 yield, 30 min [3, 9]: 75 µM

O=[N+]([O-])c1ccc(S(=O)(=O)NCc2ccccc2C(F)(F)F)c([N+](=O)[O-])c1 [Compound 5, N-(2-trifluoromethylbenzyl) 2,4-dinitrophenylsulfonamide]
MIC [1]: 1.56 µg/mL | MIC [1, 10]: 3.84 µM | SO2 yield, 5 min [3]: 81 µM | SO2 yield, 30 min [3, 9]: 84 µM

C[C@H](NS(=O)(=O)c1ccc([N+](=O)[O-])cc1[N+](=O)[O-])c1ccccc1 [Compound 12, (S) N-(1-phenylethyl)-2,4-dinitrobenzenesulfonamide]
MIC [1, 7]: 4.44 µM | MIC [1, 8]: 1.56 µg/mL | SO2 yield, 5 min [3]: 80 µM | SO2 yield, 30 min [3, 9]: 97 µM

C[C@@H](NS(=O)(=O)c1ccc([N+](=O)[O-])cc1[N+](=O)[O-])c1ccccc1 [Compound 13, (R) N-(1-phenylethyl)-2,4-dinitrobenzenesulfonamide]
MIC [1, 7]: 4.44 µM | MIC [1, 8]: 1.56 µg/mL | SO2 yield, 5 min [3]: 78 µM | SO2 yield, 30 min [3, 9]: 94 µM

O=[N+]([O-])c1ccc(S(=O)(=O)NCCc2ccccc2)c([N+](=O)[O-])c1 [Compound 14, N-(2-phenylethyl) 2,4-dinitrophenylsulfonamide]
MIC [1]: 0.4 µg/mL | MIC [1, 10]: 1.13 µM | SO2 yield, 5 min [3]: 76 µM | SO2 yield, 30 min [3, 9]: 100 µM

O=[N+]([O-])c1ccc(S(=O)(=O)N(Cc2ccccc2)c2ccccc2)c([N+](=O)[O-])c1 [Compound 17, (N-benzyl, N-phenyl) 2,4-dinitrophenylsulfonamide]
MIC [1, 10]: 4.44 µM | MIC ([1]; Table 2b, inhibit 99% of bacterial growth, Mtb H37Rv): 1.56 µg/mL | SO2 yield, 5 min [3]: 44 µM | SO2 yield, 30 min [3, 9]: 94 µM

CN(c1ccccc1)S(=O)(=O)c1ccc([N+](=O)[O-])cc1[N+](=O)[O-] [Compound 18, (N-methyl, N-phenyl) 2,4-dinitrophenylsulfonamide]
MIC [1]: 0.78 µg/mL | MIC [1, 10]: 2.31 µM | SO2 yield, 5 min [3]: 89 µM | SO2 yield, 30 min [3, 9]: 94 µM

CN(CCc1ccccc1)S(=O)(=O)c1ccc([N+](=O)[O-])cc1[N+](=O)[O-] [Compound 19, N-methyl, N-(2-phenylethyl) 2,4-dinitrophenylsulfonamide]
MIC [1]: 0.78 µg/mL | MIC [1, 10]: 2.13 µM | SO2 yield, 5 min [3]: 79 µM | SO2 yield, 30 min [3, 9]: 84 µM

O=[N+]([O-])c1ccc(S(=O)(=O)N(CCc2ccccc2)Cc2ccccc2)c([N+](=O)[O-])c1 [Compound 20, N-benzyl, N-(2-phenylethyl) 2,4-dinitrophenylsulfonamide]
MIC [1]: 3.13 µg/mL | MIC [1, 10]: 7.09 µM | SO2 yield, 5 min [3]: 37 µM | SO2 yield, 30 min [3, 9]: 75 µM

COC(=O)C(C)NS(=O)(=O)c1ccc([N+](=O)[O-])cc1[N+](=O)[O-] (stereo not drawn) [Compound 21, Methyl 2-{[(2,4-dinitrophenyl)sulfonyl]amino}propanoate]
MIC [1, 11]: ≤ 25 µg/mL | MIC [1, 5]: 18.7 µM | MIC [1, 6]: 6.25 µg/mL | SO2 source [2]: yes | SO2 yield, 30 min [3, 12]: 93 µM

COC(=O)C1CCCN1S(=O)(=O)c1ccc([N+](=O)[O-])cc1[N+](=O)[O-] (stereo not drawn) [Compound 22, Methyl 1[(2,4-dinitrophenyl)sulfonyl]pyrrolidine-2-carboxylate]
MIC [1, 11]: ≤ 25 µg/mL | MIC [1, 5]: 35 µM | MIC [1, 6]: 12.5 µg/mL | SO2 source [2]: yes | SO2 yield, 30 min [3, 12]: 83 µM

CN1CCN(S(=O)(=O)c2ccc([N+](=O)[O-])cc2[N+](=O)[O-])CC1 [Compound 25, 1-[(2,4-dinitrophenyl)sulfonyl]-4-methylpiperazine]
MIC [1, 11]: ≤ 25 µg/mL | MIC [1, 5]: 38 µM | MIC [1, 6]: 12.5 µg/mL | SO2 source [2]: yes | SO2 yield, 30 min [3, 12]: 88 µM

C=CCN(CC=C)S(=O)(=O)c1ccc([N+](=O)[O-])cc1[N+](=O)[O-] [Compound 32, N,N-diallyl-2,4-dinitrobenzenesulfonamide]
MIC (S. aureus ATCC 29213): 8 µg/mL (≈ 24.4 µM) | MIC (E. feacalis ATCC 29212): > 16 µg/mL

C#CCN(Cc1ccccc1)S(=O)(=O)c1ccc([N+](=O)[O-])cc1[N+](=O)[O-] [Compound 33, N-benzyl-2,4-dinitro-N-prop-2-yn-1-ylbenzenesulfonamide]
MIC (S. aureus ATCC 29213): 4 µg/mL (≈ 10.7 µM) | MIC (E. feacalis ATCC 29212): 8 µg/mL (≈ 21.3 µM)

COc1ccccc1N(CCCN(Cc1ccccc1)S(=O)(=O)c1ccc([N+](=O)[O-])cc1[N+](=O)[O-])S(=O)(=O)c1ccc([N+](=O)[O-])cc1[N+](=O)[O-] [Compound 35, N-benzyl-N-(3-(N-(2-methoxyphenyl)-2,4-dinitrophenylsulfonamido)propyl)-2,4-dinitrobenzenesulfonamide]
% SO2 (30 min) [3]: 161%

O=[N+]([O-])c1ccc(S(=O)(=O)N(CCCN(Cc2ccccc2)S(=O)(=O)c2ccccc2[N+](=O)[O-])Cc2ccccc2)c([N+](=O)[O-])c1 [Compound 40, N-benzyl-N-(3-(N-benzyl-2-nitrophenylsulfonamido)propyl)-2,4-dinitrobenzenesulfon-amide]
% SO2 (30 min) [3]: 88%

O=[N+]([O-])c1cccc(S(=O)(=O)N(CCCN(Cc2ccccc2)S(=O)(=O)c2ccc([N+](=O)[O-])cc2[N+](=O)[O-])Cc2ccccc2)c1 [Compound 41, N-benzyl-N-(3-(N-benzyl-3-nitrophenylsulfonamido)propyl)-2,4-dinitrobenzenesulfon-amide]
% SO2 (30 min) [3]: 99%

O=[N+]([O-])c1ccc(S(=O)(=O)N(CCCN(Cc2ccccc2)S(=O)(=O)c2ccc([N+](=O)[O-])cc2[N+](=O)[O-])Cc2ccccc2)cc1 [Compound 42, N-benzyl-N-(3-(N-benzyl-4-nitrophenylsulfonamido)propyl)-2,4-dinitrobenzenesulfon-amide]
% SO2 (30 min) [3]: 98%

CC[C@@H](CO)NCCN[C@@H](CC)CO [Ethambutol, reference compound]
MIC [1, 13]: 7.63 µM | MIC [1, 14]: 1.56 µg/mL

NNC(=O)c1ccncc1 [Isoniazide, reference compound]
MIC [1, 14]: 0.05 µg/mL | MIC [1, 4]: 0.37 µM | MIC [1, 10]: 0.37 µM | MIC ([1]; Table 3, inhibit 99% of bacterial growth, Mtb H37Rv): 0.05 µg/mL | SO2 source [2]: no

NC(=O)c1cnccn1 [Pyrizinamide, reference compound]
MIC [1, 13]: 50.8 µM | MIC [1, 14]: 6.25 µg/mL

O=S([O-])[O-].[Na+].[Na+] [sodium sulfite, reference compound]
inhibition of growth of Mtb at 100 μg mL-1 [1]: inactive against Mtb
